Consider 11 compounds from ChEMBL document CHEMBL4477253, “Oxazolidinone-based allosteric modulators of mGluR5: Defining molecular switches to create a pharmacological tool box” (Bioorg Med Chem Lett, 2016).

Activity calls are given as the source filed them. The rule behind the calls is not given here.

One data set concerns the target T1, Metabotropic glutamate receptor 5 (Homo sapiens, UniProt P41594). The experiment in a line: Agonist activity at human mGluR5A transfected in HEK293 cells assessed as induction of calcium release by FLIPR assay. The data set is classed as functional, cell-based.
Details: not given
Target sequence in this assay (P41594 whole entry): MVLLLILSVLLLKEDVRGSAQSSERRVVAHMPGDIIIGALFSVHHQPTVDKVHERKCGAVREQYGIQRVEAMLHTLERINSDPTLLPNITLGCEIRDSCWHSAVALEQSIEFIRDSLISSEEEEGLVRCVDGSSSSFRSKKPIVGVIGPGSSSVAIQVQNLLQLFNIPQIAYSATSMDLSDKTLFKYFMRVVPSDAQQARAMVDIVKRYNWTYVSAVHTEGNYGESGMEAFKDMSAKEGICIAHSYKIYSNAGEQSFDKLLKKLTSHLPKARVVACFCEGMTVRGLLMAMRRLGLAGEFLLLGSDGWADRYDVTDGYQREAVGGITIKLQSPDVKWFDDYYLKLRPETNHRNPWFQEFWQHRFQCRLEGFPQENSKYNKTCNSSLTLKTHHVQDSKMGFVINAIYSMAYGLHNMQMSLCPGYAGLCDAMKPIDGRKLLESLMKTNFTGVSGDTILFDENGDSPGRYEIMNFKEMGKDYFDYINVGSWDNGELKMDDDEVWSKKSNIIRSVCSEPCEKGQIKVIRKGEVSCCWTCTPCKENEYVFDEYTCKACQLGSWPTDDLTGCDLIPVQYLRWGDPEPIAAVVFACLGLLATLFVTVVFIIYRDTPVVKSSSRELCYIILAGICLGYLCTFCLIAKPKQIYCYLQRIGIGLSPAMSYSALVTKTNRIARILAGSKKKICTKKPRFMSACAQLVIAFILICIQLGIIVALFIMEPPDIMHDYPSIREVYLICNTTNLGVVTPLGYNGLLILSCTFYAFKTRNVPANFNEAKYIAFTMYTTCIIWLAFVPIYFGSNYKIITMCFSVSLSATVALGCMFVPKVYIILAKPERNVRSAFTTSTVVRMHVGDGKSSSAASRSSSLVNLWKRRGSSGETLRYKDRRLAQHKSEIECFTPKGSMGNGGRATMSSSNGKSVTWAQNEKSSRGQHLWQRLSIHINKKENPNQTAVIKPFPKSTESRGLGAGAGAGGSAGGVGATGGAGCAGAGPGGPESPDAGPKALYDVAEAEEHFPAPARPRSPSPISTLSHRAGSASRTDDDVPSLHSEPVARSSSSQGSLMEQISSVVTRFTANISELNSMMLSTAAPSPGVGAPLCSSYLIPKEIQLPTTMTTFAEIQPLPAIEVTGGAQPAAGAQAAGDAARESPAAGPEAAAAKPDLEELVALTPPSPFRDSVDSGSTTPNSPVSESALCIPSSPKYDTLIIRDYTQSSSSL
One may read the EC50 as the concentration at which the effect is half-maximal. Take `O=C1N[C@H](c2cncc(C#Cc3cncc(F)c3)c2)[C@@H](c2ccc(F)cc2)O1`: the 50% effective concentration (EC50) was determined as 0.315 µM.

For the compound `O=C1N[C@H](c2cncc(C#Cc3ccccc3)c2)[C@@H](c2ccc(F)c(F)c2)O1`, the concentration giving a half-maximal response (EC50) was found to be 0.05 µM.

Consider `O=C1N[C@H](c2cncc(C#Cc3ccccc3)c2)[C@@H](c2ccccc2Cl)O1` [BMS-984923], for which the EC50 is more than 3 µM.

With `O=C1N[C@H](c2cncc(C#Cc3ccccc3)c2)[C@@H](c2ccc(F)cc2F)O1`, the 50% effective concentration (EC50) was more than 3 µM.

On to `O=C1N[C@H](c2cncc(C#Cc3ccccc3)c2)[C@@H](c2ccccc2F)O1`, for which the half-maximal effective concentration (EC50) is more than 3 µM.

Consider `O=C1N[C@H](c2cncc(C#Cc3ccccc3)c2)[C@@H](c2ccccc2)O1`, for which the EC50 is more than 3 µM.

Turning to `O=C1N[C@H](c2cncc(C#Cc3ccccc3)c2)[C@@H](c2cccc(Cl)c2)O1`, the EC50 was more than 3 µM.

As for `O=C1N[C@H](c2cncc(C#Cc3ccccc3)c2)[C@@H](c2ccc(Cl)cc2)O1`, the EC50 was determined as 0.333 µM.

For `O=C1N[C@H](c2cncc(C#Cc3ccnc(F)c3)c2)[C@@H](c2ccc(F)cc2)O1`, the EC50 was more than 3 µM.

Consider `O=C1N[C@H](c2cncc(C#Cc3ccccc3)c2)[C@@H](c2c(F)cccc2F)O1`, for which the half-maximal effective concentration (EC50) is more than 3 µM.

As for `O=C1N[C@H](c2cncc(C#Cc3ccccc3)c2)[C@@H](c2cccc(F)c2F)O1`, the EC50 is more than 3 µM.

In a further data set the target is T1, Metabotropic glutamate receptor 5. The experiment in a line: Positive allosteric modulation of human mGluR5A transfected in HEK293 cells assessed as potentiation of L-glutamate-induced calcium release incubated for 10 mins by FLIPR assay. The data set is classed as functional, cell-based.
Details: not given
Target sequence in this assay (P41594 whole entry): as above
With `O=C1N[C@H](c2cncc(C#Cc3ccccc3)c2)[C@@H](c2ccc(F)c(F)c2)O1`, the concentration giving a half-maximal response (EC50) amounted to 0.2 nM.

`O=C1N[C@H](c2cncc(C#Cc3ccccc3)c2)[C@@H](c2ccccc2Cl)O1` [BMS-984923]: the EC50 was more than 3000 nM.

In the case of `O=C1N[C@H](c2cncc(C#Cc3ccccc3)c2)[C@@H](c2ccc(F)cc2F)O1`, the EC50 turned out to be 1.2 nM.

Regarding `O=C1N[C@H](c2cncc(C#Cc3ccccc3)c2)[C@@H](c2ccccc2F)O1`, the concentration giving a half-maximal response (EC50) turned out to be 1.5 nM.

For the compound `O=C1N[C@H](c2cncc(C#Cc3ccccc3)c2)[C@@H](c2ccccc2)O1`, the EC50 came out at 0.7 nM.

Take `O=C1N[C@H](c2cncc(C#Cc3ccccc3)c2)[C@@H](c2cccc(Cl)c2)O1`: the concentration giving a half-maximal response (EC50) came to 0.9 nM.

Turning to `O=C1N[C@H](c2cncc(C#Cc3ccccc3)c2)[C@@H](c2ccc(Cl)cc2)O1`, the concentration giving a half-maximal response (EC50) came to 0.6 nM.

For the compound `O=C1N[C@H](c2cncc(C#Cc3ccnc(F)c3)c2)[C@@H](c2ccc(F)cc2)O1`, the half-maximal effective concentration (EC50) was found to be 4.8 nM.

Regarding `O=C1N[C@H](c2cncc(C#Cc3ccccc3)c2)[C@@H](c2c(F)cccc2F)O1`, the 50% effective concentration (EC50) is more than 3000 nM.

Take `O=C1N[C@H](c2cncc(C#Cc3ccccc3)c2)[C@@H](c2cccc(F)c2F)O1`: the concentration giving a half-maximal response (EC50) stood at 4.2 nM.

The target is the same in the next data set. The experiment in a line: Displacement of [3H]-MPEPy from human mGluR5A transfected in HEK293 cell membranes after 60 mins by microbeta liquid scintillation counting analysis.
Details: not given
Target sequence in this assay (P41594 whole entry): as above
The Ki is the dissociation constant of the complex between target and ligand, obtained from inhibition or displacement. Regarding `O=C1N[C@H](c2cncc(C#Cc3ccccc3)c2)[C@@H](c2ccc(F)c(F)c2)O1`, the Ki is 2.8 nM.

`O=C1N[C@H](c2cncc(C#Cc3ccccc3)c2)[C@@H](c2ccc(F)cc2F)O1` registered a Ki of 1.4 nM.

In turn, `O=C1N[C@H](c2cncc(C#Cc3ccccc3)c2)[C@@H](c2ccccc2F)O1` gave a Ki of 1.9 nM.

Turning to `O=C1N[C@H](c2cncc(C#Cc3ccccc3)c2)[C@@H](c2ccccc2)O1`, the Ki was found to be 1.4 nM.

Compound `O=C1N[C@H](c2cncc(C#Cc3ccccc3)c2)[C@@H](c2cccc(Cl)c2)O1` had an inhibition constant Ki of 1.8 nM.

Take `O=C1N[C@H](c2cncc(C#Cc3ccccc3)c2)[C@@H](c2ccc(Cl)cc2)O1`: the affinity corresponds to a Ki of 2.2 nM.

`O=C1N[C@H](c2cncc(C#Cc3ccnc(F)c3)c2)[C@@H](c2ccc(F)cc2)O1` showed an inhibitory constant (Ki) of 15 nM.

As for `O=C1N[C@H](c2cncc(C#Cc3ccccc3)c2)[C@@H](c2c(F)cccc2F)O1`, the inhibitory constant (Ki) was 2.7 nM.

On to `O=C1N[C@H](c2cncc(C#Cc3ccccc3)c2)[C@@H](c2cccc(F)c2F)O1`, for which the affinity, expressed as Ki, was 1.8 nM.

Test system in the next data set: not listed separately
Nature of the data set: Fraction unbound in human serum. It is filed as ADME, cell-free.
Details: not given
By fraction unbound is commonly meant free concentration divided by total concentration. Low values mean extensive binding, high ones weak binding. For the compound `O=C1N[C@H](c2cncc(C#Cc3cncc(F)c3)c2)[C@@H](c2ccc(F)cc2)O1`, the free fraction (fraction unbound) came to 0.035.

In turn, `O=C1N[C@H](c2cncc(C#Cc3ccccc3)c2)[C@@H](c2ccccc2)O1` gave a free fraction (fraction unbound) of 0.008.

The compound `O=C1N[C@H](c2cncc(C#Cc3ccnc(F)c3)c2)[C@@H](c2ccc(F)cc2)O1` showed a free fraction (fraction unbound) of 0.034.

Test system in another data set: not listed separately
Nature of the data set: Fraction unbound in rat serum. It is filed as ADME, cell-free.
Details: not given
In turn, `O=C1N[C@H](c2cncc(C#Cc3ccccc3)c2)[C@@H](c2ccccc2)O1` returned a fraction unbound of 0.007.

Test system in another data set: not listed separately
The experiment in a line: Fraction unbound in mouse serum. It is filed as ADME, cell-free.
Details: not given
`O=C1N[C@H](c2cncc(C#Cc3ccccc3)c2)[C@@H](c2ccccc2)O1` had a fraction unbound of 0.047.

Compound `O=C1N[C@H](c2cncc(C#Cc3ccnc(F)c3)c2)[C@@H](c2ccc(F)cc2)O1` had a fraction unbound of 0.11.

Another data set concerns the target T1, Metabotropic glutamate receptor 5. The experiment in a line: Agonist activity at human mGluR5A transfected in HEK293 cells assessed as induction of calcium release up to 3 uM by FLIPR assay. It is filed as functional, cell-based.
Details: not given
Target sequence in this assay (P41594 21-1212 limits assumed): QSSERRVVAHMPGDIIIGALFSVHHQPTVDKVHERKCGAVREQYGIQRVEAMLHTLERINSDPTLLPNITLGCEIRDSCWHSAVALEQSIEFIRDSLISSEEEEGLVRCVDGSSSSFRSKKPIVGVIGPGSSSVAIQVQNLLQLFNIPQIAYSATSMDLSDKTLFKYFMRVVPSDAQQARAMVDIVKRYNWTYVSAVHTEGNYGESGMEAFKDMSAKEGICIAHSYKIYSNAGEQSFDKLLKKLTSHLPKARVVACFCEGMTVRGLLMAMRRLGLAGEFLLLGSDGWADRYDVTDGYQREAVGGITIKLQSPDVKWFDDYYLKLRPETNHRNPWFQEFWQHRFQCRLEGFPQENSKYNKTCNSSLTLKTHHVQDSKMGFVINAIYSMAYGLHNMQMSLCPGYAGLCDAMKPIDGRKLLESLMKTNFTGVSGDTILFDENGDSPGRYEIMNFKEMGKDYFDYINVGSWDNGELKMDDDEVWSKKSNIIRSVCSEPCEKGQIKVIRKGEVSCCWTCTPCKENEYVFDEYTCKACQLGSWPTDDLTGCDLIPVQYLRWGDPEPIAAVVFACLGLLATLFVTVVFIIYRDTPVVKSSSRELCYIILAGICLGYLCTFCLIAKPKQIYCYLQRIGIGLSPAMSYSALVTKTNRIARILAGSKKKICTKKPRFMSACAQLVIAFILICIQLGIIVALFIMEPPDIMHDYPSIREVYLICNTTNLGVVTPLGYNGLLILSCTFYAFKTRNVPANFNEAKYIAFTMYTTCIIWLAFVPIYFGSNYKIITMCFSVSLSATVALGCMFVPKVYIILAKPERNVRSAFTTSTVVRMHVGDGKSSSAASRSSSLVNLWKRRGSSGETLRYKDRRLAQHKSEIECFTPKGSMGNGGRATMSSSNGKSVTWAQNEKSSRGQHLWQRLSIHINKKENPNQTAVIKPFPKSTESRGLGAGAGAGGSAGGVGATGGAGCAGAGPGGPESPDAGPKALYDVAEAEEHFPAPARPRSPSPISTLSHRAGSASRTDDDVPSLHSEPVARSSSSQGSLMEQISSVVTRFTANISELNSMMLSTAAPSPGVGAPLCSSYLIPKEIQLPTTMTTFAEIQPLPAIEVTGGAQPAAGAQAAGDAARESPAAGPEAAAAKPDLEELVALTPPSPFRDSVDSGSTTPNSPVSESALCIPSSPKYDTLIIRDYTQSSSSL
On to `O=C1N[C@H](c2cncc(C#Cc3ccccc3)c2)[C@@H](c2ccccc2)O1`, for which the result was inactive.

A further data set has the same target. Nature of the data set: Antagonist activity against human mGluR5A transfected in HEK293 cells assessed as inhibition of L-glutamate-induced calcium release up to 3 uM after 10 mins by FLIPR assay. It is filed as functional, cell-based.
Details: not given
Target sequence in this assay (P41594 21-1212 limits assumed): as above
With `O=C1N[C@H](c2cncc(C#Cc3ccccc3)c2)[C@@H](c2ccccc2)O1`, the inhibition entry is “inactive”.

A further data set shares this target. Nature of the data set: Negative allosteric modulation of human mGluR5A transfected in HEK293 cells assessed as inhibition of L-glutamate-induced calcium release after 10 mins by FLIPR assay. The data set is classed as functional, cell-based.
Details: not given
Target sequence in this assay (P41594 whole entry): as the sequence (P41594 whole entry) above
One may read the IC50 as the midpoint of a concentration-inhibition curve. `O=C1N[C@H](c2cncc(C#Cc3ccccc3)c2)[C@@H](c2c(F)cccc2F)O1`: the concentration for half-maximal inhibition (IC50) is 27 nM.

Test system in the next data set: not listed separately
The experiment in a line: Metabolic stability in human liver microsomes assessed as compound remaining after 10 mins. It is filed as ADME, Microsome. Particulars: read-out: Stability. Background: Microsomes from liver hold many membrane-bound enzymes, among them those of drug oxidation.
Turning to `O=C1N[C@H](c2cncc(C#Cc3cncc(F)c3)c2)[C@@H](c2ccc(F)cc2)O1`, the remaining at 10 min was determined as 97%.

For the compound `O=C1N[C@H](c2cncc(C#Cc3ccnc(F)c3)c2)[C@@H](c2ccc(F)cc2)O1`, the remaining at 10 min worked out at 92%.

Test system in another data set: not listed separately
The experiment in a line: Metabolic stability in rat liver microsomes assessed as compound remaining after 10 mins. As to conditions: read-out: Stability. It is filed as ADME, Microsome.
As for `O=C1N[C@H](c2cncc(C#Cc3cncc(F)c3)c2)[C@@H](c2ccc(F)cc2)O1`, the remaining at 10 min was determined as 85%.

Regarding `O=C1N[C@H](c2cncc(C#Cc3ccnc(F)c3)c2)[C@@H](c2ccc(F)cc2)O1`, the remaining at 10 min came to 100%.

Test system in a further data set: not listed separately
Nature of the data set: Metabolic stability in mouse liver microsomes assessed as compound remaining after 10 mins. It is filed as ADME, Microsome. Particulars: read-out: Stability.
In the case of `O=C1N[C@H](c2cncc(C#Cc3cncc(F)c3)c2)[C@@H](c2ccc(F)cc2)O1`, the remaining at 10 min stood at 77%.

Test system in the next data set: not listed separately
Nature of the data set: Toxicity in C57BL/6 mouse assessed as induction of convulsions at 10 mg/kg, ip coadministered with (4R,5R)-5-phenyl-4-(4-(phenylethynyl)pyridin-2-yl)oxazolidin-2-one during 3 hrs study. It is filed as organism-based. Particulars: in vivo.
For the compound `O=C1N[C@H](c2cncc(C#Cc3cncc(F)c3)c2)[C@@H](c2ccc(F)cc2)O1`, the Activity result was “Non-Toxic”.

Test system in a further data set: not listed separately
Nature of the data set: Toxicity in C57BL/6 mouse assessed as induction of convulsions at 3 mg/kg, ip during 3 hrs study. The data set is classed as organism-based. Particulars: in vivo.
With `O=C1N[C@H](c2cncc(C#Cc3ccccc3)c2)[C@@H](c2ccc(F)cc2F)O1`, the Activity entry was “Toxic”.

Test system in another data set: not listed separately
Nature of the data set: Toxicity in C57BL/6 mouse assessed as induction of convulsions at 30 mg/kg, ip during 3 hrs study. The data set is classed as organism-based. As to conditions: in vivo.
`O=C1N[C@H](c2cncc(C#Cc3ccccc3)c2)[C@@H](c2ccccc2)O1`: the Activity entry is on record as “Non-Toxic”.

Test system in another data set: not listed separately
Nature of the data set: Toxicity in C57BL/6 mouse assessed as induction of convulsions at 10 mg/kg, ip during 3 hrs study. The data set is classed as organism-based. Particulars: in vivo.
For the compound `O=C1N[C@H](c2cncc(C#Cc3cncc(F)c3)c2)[C@@H](c2ccc(F)cc2)O1`, the Activity result is “Toxic”.

With `O=C1N[C@H](c2cncc(C#Cc3ccnc(F)c3)c2)[C@@H](c2ccc(F)cc2)O1`, the Activity result is listed as “Toxic”.
